Assay results published in PubChem BioAssay AID1963449 (Molecular Pharmacology Branch, DTP, NCI, 2024).
“And” between values parts separate entries of the source, which are not always exact repeats. Identical values can stand only once.

System: 596521-263-R-J1-PDC complex spheroid growth
Assay: Anticancer human tumor 596521-263-R-J1-PDC patient-derived soft tissue sarcoma cell line growth inhibition [Asc]
Details: for viability, T/C: stronger effect = lower value
How it was run: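 Complex solid-tumor spheroids incorporating human endothelial and mesenchymal stem cells received single agents or combinations over half-log dilution ranges anchored to clinical Cmax.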

[1] = curve of first compound, second compound 0.00949 µM
[2] = curve of first compound, second compound 0.03 µM
[3] = curve of first compound, second compound 0.0949 µM
[4] = curve of first compound, second compound 0.3 µM
[5] = curve of first compound, second compound 0.949 µM
[6] = curve of first compound, second compound 3 µM
[7] = second compound 0.00949 µM, first compound 0.0316 µM
[8] = second compound 0.00949 µM, first compound 0.1 µM
[9] = second compound 0.00949 µM, first compound 0.316 µM
[10] = second compound 0.00949 µM, first compound 1 µM
[11] = second compound 0.03 µM, first compound 0.0316 µM
[12] = second compound 0.03 µM, first compound 0.1 µM
[13] = second compound 0.03 µM, first compound 0.316 µM
[14] = second compound 0.03 µM, first compound 1 µM
[15] = second compound 0.0949 µM, first compound 0.0316 µM
[16] = second compound 0.0949 µM, first compound 0.1 µM
[17] = second compound 0.0949 µM, first compound 0.316 µM
[18] = second compound 0.0949 µM, first compound 1 µM
[19] = second compound 0.3 µM, first compound 0.0316 µM
[20] = second compound 0.3 µM, first compound 0.1 µM
[21] = second compound 0.3 µM, first compound 0.316 µM
[22] = second compound 0.3 µM, first compound 1 µM
[23] = second compound 0.949 µM, first compound 0.0316 µM
[24] = second compound 0.949 µM, first compound 0.1 µM
[25] = second compound 0.949 µM, first compound 0.316 µM
[26] = second compound 0.949 µM, first compound 1 µM
[27] = second compound 3 µM, first compound 0.0316 µM
[28] = second compound 3 µM, first compound 0.1 µM
[29] = second compound 3 µM, first compound 0.316 µM
[30] = second compound 3 µM, first compound 1 µM
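Note: spheroids exposed to compounds for 7 days.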

`COc1c(OCCCN2CCOCC2)ccc2c3n(c(=NC(=O)c4cnc(N)nc4)nc12)CCN3` + CCN1C(C(=O)NC23CCC(C(=O)O)(CC2)CC3)C(c2cccc(Cl)c2F)C2(C(=O)Nc3cc(Cl)ccc32)C12CCCCC2 showed an IC50 [1] of 199 nM, an IC50 [2] of 182 nM and an IC50 [3] of 159 nM. The IC50 [4] was 212 nM, the IC50 [5] was 105 nM and the IC50 [6] was 125 nM. It also gave a viability, T/C (second compound 0.00949 µM, first compound 0.00316 µM) of 93.1%, a viability, T/C (second compound 0.00949 µM, first compound 0.01 µM) of 90.5% and a viability, T/C [7] of 70.4%. The viability, T/C [8] was 67.6%, the viability, T/C [9] was 39.1% and the viability, T/C [10] was 24%. The viability, T/C (second compound 0.03 µM, first compound 0.00316 µM) was 97.5%, the viability, T/C (second compound 0.03 µM, first compound 0.01 µM) was 96.7% and the viability, T/C [11] was 80%. For the same molecule, the viability, T/C [12] was 59.4%, the viability, T/C [13] was 42% and the viability, T/C [14] was 34.9%. It also gave a viability, T/C (second compound 0.0949 µM, first compound 0.00316 µM) of 87.7%, a viability, T/C (second compound 0.0949 µM, first compound 0.01 µM) of 96.3% and a viability, T/C [15] of 78.3%. The viability, T/C [16] was 59.1%, the viability, T/C [17] was 37.5% and the viability, T/C [18] was 31.4%. It also gave a viability, T/C (second compound 0.3 µM, first compound 0.00316 µM) of 99.9%, a viability, T/C (second compound 0.3 µM, first compound 0.01 µM) of 83.8% and a viability, T/C [19] of 79.9%. For the same molecule, the viability, T/C [20] was 64.8%, the viability, T/C [21] was 39.9% and the viability, T/C [22] was 29.9%. For the same molecule, the viability, T/C (second compound 0.949 µM, first compound 0.00316 µM) was 103%, the viability, T/C (second compound 0.949 µM, first compound 0.01 µM) was 97.3% and the viability, T/C [23] was 75.3%. It also gave a viability, T/C [24] of 50.9%, a viability, T/C [25] of 36.1% and a viability, T/C [26] of 30.1%. The viability, T/C (second compound 3 µM, first compound 0.00316 µM) was 87.5%, the viability, T/C (second compound 3 µM, first compound 0.01 µM) was 85.4% and the viability, T/C [27] was 78.2%. It also gave a viability, T/C [28] of 52.3%, a viability, T/C [29] of 40.1% and a viability, T/C [30] of 38.7%.
`C=CC(=O)N1CCN(c2nc(=O)n(-c3c(C)ccnc3C(C)C)c3nc(-c4c(O)cccc4F)c(F)cc23)C(C)C1` (stereo unspecified) + CCN1C(C(=O)NC23CCC(C(=O)O)(CC2)CC3)C(c2cccc(Cl)c2F)C2(C(=O)Nc3cc(Cl)ccc32)C12CCCCC2 showed an IC50 [1] greater than 10000 nM, an IC50 [2] greater than 10000 nM and an IC50 [3] greater than 10000 nM. It also gave an IC50 [4] greater than 10000 nM, an IC50 [5] greater than 10000 nM and an IC50 [6] greater than 10000 nM. The viability, T/C [7] was 102%, the viability, T/C [8] was 101% and the viability, T/C [9] was 123%. For the same molecule, the viability, T/C [10] was 114%, the viability, T/C (second compound 0.00949 µM, first compound 3.16 µM) was 113% and the viability, T/C (second compound 0.00949 µM, first compound 10 µM) was 70.7%. For the same molecule, the viability, T/C [11] was 108%, the viability, T/C [12] was 99.6% and the viability, T/C [13] was 94.5%. The viability, T/C [14] was 125%, the viability, T/C (second compound 0.03 µM, first compound 3.16 µM) was 114% and the viability, T/C (second compound 0.03 µM, first compound 10 µM) was 67.7%. The viability, T/C [15] was 118%, the viability, T/C [16] was 111% and the viability, T/C [17] was 113%. For the same molecule, the viability, T/C [18] was 108%, the viability, T/C (second compound 0.0949 µM, first compound 3.16 µM) was 103% and the viability, T/C (second compound 0.0949 µM, first compound 10 µM) was 86.1%. For the same molecule, the viability, T/C [19] was 108%, the viability, T/C [20] was 99.2% and the viability, T/C [21] was 106%. It also gave a viability, T/C [22] of 117%, a viability, T/C (second compound 0.3 µM, first compound 3.16 µM) of 112% and a viability, T/C (second compound 0.3 µM, first compound 10 µM) of 73.7%. The viability, T/C [23] was 103%, the viability, T/C [24] was 101% and the viability, T/C [25] was 96.2%. The viability, T/C [26] was 113%, the viability, T/C (second compound 0.949 µM, first compound 3.16 µM) was 111% and the viability, T/C (second compound 0.949 µM, first compound 10 µM) was 80.9%. It also gave a viability, T/C [27] of 86.8%, a viability, T/C [28] of 81.9% and a viability, T/C [29] of 91.6%. It also gave a viability, T/C [30] of 98.2%, a viability, T/C (second compound 3 µM, first compound 3.16 µM) of 89.4% and a viability, T/C (second compound 3 µM, first compound 10 µM) of 70.3%.
For `Cc1nc(N2CCC3(CC2)COC(C)C3N)c(CO)nc1Sc1ccnc(N)c1Cl` (stereo unspecified), the viability, T/C (compound 0.00949 µM) was 92.9% and 104% and 105%, the viability, T/C (compound 0.03 µM) was 105% and 93.2% and 112% and the viability, T/C (compound 0.0949 µM) was 95.7% and 91.3% and 95.2%. The viability, T/C (compound 0.3 µM) was 96.7% and 100% and 87%, the viability, T/C (compound 0.949 µM) was 88.2% and 85.2% and 73.8% and the viability, T/C (compound 3 µM) was 64.9% and 62.4% and 62.7%. For the same molecule, the IC50 (curve of compound) was greater than 3000 nM.
